Measurements published in paper PMC13147323, “EGFR-Targeted and MMP-Activated Membranolytic Peptides Kill Cancer Cells Specifically In Vitro and Reduce Tumor Growth In Vivo” (Molecular Pharmaceutics, 2026).
Residues, ends and D or L forms follow the SMILES beside them.

Tests used:
[1] = tested on: HB2 cells; assay type: cell-based, human; settings: 24 h
Procedure: (§1) MDA-MB-468, MDA-MB-231, BT-474, AU-565, HB2, and MCF-10A cells were procured from American Type Culture Collection (ATCC) and validated for lack of mycoplasma contamination (MycoAlert; Lonza, Basel, Switzerland) and identity (short tandem repeat profiling; Source Bioscience, Nottingham, UK). Cells (except MCF-10A) were cultured in Dulbecco’s modified Eagle medium (DMEM) supplemented with 10% (v/v) fetal calf serum (FCS) and 100 units/mL penicillin–streptomycin (Thermo Scientific; Waltham, MA, USA). MCF-10A was cultured in DMEM supplemented with 5% horse serum, 0.1 μg/mL cholera toxin, 0.5 μg/mL hydrocortisone, 0.02 μg/mL epidermal growth factor, and 100 units/mL penicillin–streptomycin (Thermo Scientific, Waltham, MA, USA). Cells were grown at 37 °C in a humidified incubator with 5% CO2. Cells were maintained and experiments were performed under conditions ensuring cell densities that supported exponential growth.
(§2) Cells were seeded in 96-well plates at 1 × 10^4 cells/well in complete growth media and incubated for 18 h. Cells were then treated with peptides (0–250 μM) for up to 24 h. Cells were then incubated with 0.5 mg/mL MTT dissolved in PBS for 3 h. Formazan crystals were dissolved using […] of isopropanol and absorbance was measured at 570 nm on a microplate spectrophotometer (Biotech Instruments, USA). For spheroids assays, MDA-MB-468 or HB2 cells (1000 cells/well) were seeded in 250 μL of DMEM supplemented with 10% FCS and 2.5% Matrigel (Corning, New York, USA) in low-adherent, round-bottom 96-well plates (Corning, New York, USA). The plates were centrifuged at 360g for 10 min and subsequently incubated for 48 h to allow spheroid formation. MDA-MB-468 or HB2 spheroids were then treated with peptides at the IC50 doses determined for MDA-MB-468 cells for 24 h. Cellular viability within spheroids was assessed by staining with Hoechst 33342 (5 μg/mL) for 30 min, followed by propidium iodide (PI) (1.5 μg/mL) for 10 min. Red fluorescence indicated nonviable cells stained with PI, whereas blue fluorescence represented both viable and nonviable cells stained with Hoechst 33342. The survival of spheroids was determined by calculating ratios of blue/red fluorescence using ImageJ software.
(§3) A panel of human breast epithelial cell lines was established, including two lines from a nontransformed origin (MCF-10A; HB2) and four cancer lines (BT-474; AU-565; MDA-MB-231; MDA-MB-468). Cells were treated with different doses of MP1 or the modified peptides. Survival was assessed relative to untreated using MTT assays (Figures and S2) and IC50 doses were determined for each peptide in each cell line.

[2] = tested on: BT-474 cells; assay type: cell-based, human; settings: 24 h
Procedure: as §1, §2, §3

[3] = tested on: MCF-10A cells; assay type: cell-based, human; settings: 24 h
Procedure: as §1, §2, §3

[4] = tested on: MDA-MB-231 cells; assay type: cell-based, human; settings: 24 h
Procedure: as §1, §2, §3

[5] = tested on: MDA-MB-468 cells; assay type: cell-based, human; settings: 24 h
Procedure: as §1, §2, §3

[6] = tested on: AU-565 cells; assay type: cell-based, human; settings: 24 h
Procedure: as §1, §2, §3

[7] = tested on: MDA-MB-468 xenografts; test: MDA-MB-468 xenograft study in NCG mice; assay type: in vivo, mouse; settings: 500 μg i.v. days 1, 3, 5, monitored 27 days, recovered by the end of the experiment
Procedure: These were performed by HD Biosciences (Shanghai, China). Procedures related to handling, care, and treatment of animals were performed according to guidelines approved by the HD Biosciences Institutional Animal Care and Use Committee (reference number AUC105), under the criteria of the Association for Assessment and Accreditation of Laboratory Animal Care (AAALAC). Protocols and AAALAC accreditation were reviewed by the Animal Welfare and Ethical Review Committee at the University of Leeds and were approved (reference number THAWERC222707; date 28/7/2022). Protocols and data are reported in accordance with the ARRIVE guidelines (https://arriveguidelines.org/arrive-guidelines). Female NCG mice (6–8 weeks old) were purchased from GemPharmatech Ltd. (Nanjing, China). […] Two groups were used: control group (13 animals) and test group (7 animals); group sizes were not determined by power calculation due to lack of data on which this could be based. […] Tumor volumes were monitored using calipers, and body weight was monitored throughout the experiment; no animals were excluded. […]
NCG immune-compromised female mice were implanted subcutaneously with MDA-MB-468 xenografts. […] Tumor size and animal weight were monitored every 2 to 3 days for a total of 27 days, after which animals were sacrificed and tumors were dissected and weighed. […]

[8] = tested on: red blood cells; test: Ex vivo hemolysis assay; assay type: cell-based; settings: mouse RBCs 1:50 in PBS, three doses, 1 h, 37 °C, absorbance 540 nm
Procedure: Blood was collected from five 10-week-old male C57BL/6 mice via cardiac puncture following cervical dislocation, using pediatric blood collection tubes containing K3 EDTA (Greiner; Slušovice, Czechia). Blood was centrifuged (500g; 5 min; 4 °C) and plasma was removed. Red blood cells (RBCs) were resuspended to their original volume using 150 mM NaCl. RBCs were repeatedly washed and diluted to 1:50 in PBS. For a positive control, 1% (v/v) Triton X-100 was used (100% lysis), while cells incubated in PBS served as a negative control (0% lysis). 200 μL of RBCs in triplicate was treated with peptides and incubated on an orbital shaker (100 rpm; 1 h; 37 °C). Samples were centrifuged (500g; 5 min) and supernatants, containing lysed RBCs, were collected. Hemolysis was quantified by measuring absorbance at 540 nm.
Our next aim was to assess whether our various peptides had potential as anticancer therapeutics using an in vivo model. To our knowledge, MP1 or MP1-derived peptides have not previously been used experimentally in vivo, therefore we first performed an in vitro hemolysis assay to aid selection of peptides that could be suitable for intravenous delivery. Red blood cells were isolated from mouse blood and treated with three different doses of MP1 wildtype or our targeted peptides (EGFR and EGFR-MMP versions of both MP1 and D2K) and hemolysis was measured (Figure A).

SMILES: CC[C@H](C)[C@H](N)C(=O)N[C@@H](CC(=O)O)C(=O)N[C@@H](Cc1c[nH]c2ccccc12)C(=O)N[C@@H](CCCCN)C(=O)N[C@@H](CCCCN)C(=O)N[C@@H](CC(C)C)C(=O)N[C@@H](CC(C)C)C(=O)N[C@@H](CC(=O)O)C(=O)N[C@@H](C)C(=O)N[C@@H](C)C(=O)N[C@@H](CCCCN)C(=O)N[C@@H](CCC(N)=O)C(=O)N[C@H](C(=O)N[C@@H](CC(C)C)C(=O)NCC(=O)N1CCC[C@H]1C(=O)N[C@@H](CC(C)C)C(=O)NCC(=O)N[C@H](C(=O)N[C@@H](C)C(=O)NCC(=O)N[C@@H](CCC(N)=O)C(=O)N[C@@H](Cc1ccc(O)cc1)C(=O)N[C@@H](Cc1c[nH]cn1)C(=O)N[C@@H](Cc1c[nH]c2ccccc12)C(=O)N[C@@H](Cc1ccc(O)cc1)C(=O)NCC(=O)N[C@@H](Cc1ccc(O)cc1)C(=O)N[C@H](C(=O)N1CCC[C@H]1C(=O)N[C@@H](CCC(=O)O)C(=O)N[C@@H](CC(N)=O)C(=O)N[C@H](C(=O)N[C@H](C(=O)O)[C@@H](C)CC)C(C)C)[C@@H](C)O)[C@@H](C)CC)[C@@H](C)CC [EGFR-MMP-MP1] (H-IDWKKLLDAAKQILGPLGIAGQYHWYGYTPENVI-OH)
- IC50 [1]: 92.4 µM
- IC50 [2]: 116 µM
- IC50 [3]: 114 µM
- IC50 [4]: 57.9 µM
- IC50 [5]: 56.6 µM
- selectivity index (IC50 noncancer line / IC50 cancer line) [5]: 1.63
- IC50 [6]: 105 µM
- animal weights as surrogate for side-effects [7]: slightly reduced
- hemolysis (in words) [8]: low hemolysis at relevant doses
